Test system: hRXR α, β, or γ
Test: Transactivation assay (RARE-Luc dual luciferase reporter in HEK-293 cells), activity relative to LG268
Type: cell-based, human
Details: compound at 1 µM, 24 h; luciferase activity expressed relative to LG268
Method: HEK-293 cells (ATCC) were seeded one day prior to transfection. For assessing EC50 of activation of RXR isoforms 2 μg of hRXR α, β, or γ (OriGENE, USA) over-expressing vector, 1 μg of plasmid expressing firefly luciferase under RARE element (RARE-Luc) and 25 ng of renilla luciferase vector (QIAGEN, USA) were co-transfected using lipofectamine reagent. Post 24 h of transfection, cells were treated with different concentrations of RXR agonists (100 nM, 300 nM and 1 uM) for 24 h followed by estimation of luciferase activity using Dual Luciferase Reporter Assay System (Promega). Luciferase activity was normalized to that of renilla luciferase. The activities of the RXR compounds were expressed relative to LG268, a known RXR agonist.

SMILES | Activity at 1 µM
C=C(c1ccc(C(=O)O)cc1)c1sc2c(c1C)C(C)(C)CCC2(C)C [Compound 1, 4-[1-(3,4,4,7,7-Pentamethyl-4,5,6,7-tetrahydro-1-benzothiophen-2-yl)ethenyl]benzoic acid] | ***** (>1)
Cc1c(C2(c3ccc(C(=O)O)cc3)CC2)sc2c1C(C)(C)CCC2(C)C [Compound 2, 4-[1-(3,4,4,7,7-pentamethyl-4,5,6,7-tetrahydro-1-benzothiophen-2-yl)cyclopropyl]benzoic acid] | ***** (>1)
Cc1c(/C(=N/O)c2ccc(C(=O)O)cc2)sc2c1C(C)(C)CCC2(C)C [Compound 3, 4-[(E)-(Hydroxyimino) (3,4,4,7,7-pentamethyl-4,5,6,7-tetrahydro-1-benzothiophen-2-yl)methyl]benzoic acid] | ***** (>1)
CO/N=C(\c1ccc(C(=O)O)cc1)c1sc2c(c1C)C(C)(C)CCC2(C)C [Compound 4, 4-[(E,Z)-(Methoxyimino) (3,4,4,7,7-pentamethyl-4,5,6,7-tetrahydro-1-benzothiophen-2-yl)methyl]benzoic acid] | **** (>0.9 to <1)
Cc1c(C(=O)c2ccc(C(=O)O)cn2)sc2c1C(C)(C)CCC2(C)C [Compound 5, 6-[(3,4,4,7,7-Pentamethyl-4,5,6,7-tetrahydro-1-benzothiophen-2-yl)carbonyl]pyridine-3-carboxylic acid] | ** (>0.7 and <0.8)
C=C(c1ccc(C(=O)O)cn1)c1sc2c(c1C)C(C)(C)CCC2(C)C [Compound 6, 6-[1-(3,4,4,7,7-Pentamethyl-4,5,6,7-tetrahydro-1-benzothiophen-2-yl)ethenyl]pyridine-3-carboxylic acid] | *** (>0.8 and <0.9)
Cc1c(C2(c3ccc(C(=O)O)cn3)CC2)sc2c1C(C)(C)CCC2(C)C [Compound 7, 6-[1-(3,4,4,7,7-Pentamethyl-4,5,6,7-tetrahydro-1-benzothiophen-2-yl)cyclopropyl]pyridine-3-carboxylic acid] | ***** (>1)
Cc1c(N(C)c2ccc(C(=O)O)cc2)sc2c1C(C)(C)CCC2(C)C [Compound 8, 4-[Methyl(3,4,4,7,7-pentamethyl-4,5,6,7-tetrahydro-1-benzothiophen-2-yl)amino]benzoic acid] | ***** (>1)
CCN(c1ccc(C(=O)O)cc1)c1sc2c(c1C)C(C)(C)CCC2(C)C [Compound 9, 4-[Ethyl(3,4,4,7,7-pentamethyl-4,5,6,7-tetrahydro-1-benzothiophen-2-yl)amino]benzoic acid] | *** (>0.8 and <0.9)
Cc1c(N(c2ccc(C(=O)O)cc2)C2CC2)sc2c1C(C)(C)CCC2(C)C [Compound 10, 4-[Cyclopropyl(3,4,4,7,7-pentamethyl-4,5,6,7-tetrahydro-1-benzothiophen-2-yl)amino]benzoic acid] | ***** (>1)
Cc1c(N(CC2CC2)c2ccc(C(=O)O)cc2)sc2c1C(C)(C)CCC2(C)C [Compound 11, 4-[(Cyclopropylmethyl) (3,4,4,7,7-pentamethyl-4,5,6,7-tetrahydro-1-benzothiophen-2-yl)amino]benzoic acid] | **** (>0.9 to <1)
Cc1c(N(c2ccc(C(=O)O)cc2)C(C)C)sc2c1C(C)(C)CCC2(C)C [Compound 13, 4-[(3,4,4,7,7-Pentamethyl-4,5,6,7-tetrahydro-1-benzothiophen-2-yl) (propan-2-yl)amino]benzoic acid] | ** (>0.7 and <0.8)
Cc1c(N(c2ccc(C(=O)O)cc2)S(C)(=O)=O)sc2c1C(C)(C)CCC2(C)C [Compound 14, 4-[(Methylsulfonyl) (3,4,4,7,7-pentamethyl-4,5,6,7-tetrahydro-1-benzothiophen-2-yl)amino]benzoic acid] | **** (>0.9 to <1)

Source: patent US9862713B2, “Substituted bicyclic heteroaryl compounds as RXR agonists” (CONNEXIOS LIFE SCIENCES PVT. LTD., priority 2014, dated 2018)
